Assay results published in US20210290597A1, “METHOD OF TREATING A CONDITION ASSOCIATED WITH NEURODEGENERATION USING INHIBITORS OF OAT3” (Neuropore Therapies, Inc., priority 2018, published 2021).
pIC50: −log10 of the molar value. Like-named read-outs stand apart in the source and are kept apart here.

Columns and labels:
total alpha-synuclein = experiment: Total alpha-synuclein IHC, L61 ASYN transgenic mice, 1 month study; assay type: in vivo; conditions: for reduction of total alpha-synuclein level in cortex compared to vehicle control: L61 ASYN transgenic mice
Procedure: Multiple in vivo administration studies of Compound 1 were carried out in the Line 61 (L61) mThy1-alpha-synuclein transgenic mouse model of Parkinson's disease (PD). The mThy1-alpha-synuclein transgenic mouse model overexpresses wild-type human ASYN under the Thy-1 promoter (commonly referred to as Line 61 transgenic mice; Rockenstein et al., 2002). This transgenic mouse develops extensive accumulation of alpha-synuclein (ASYN) in areas relevant to PD (Rockenstein et al., 2002; Chesselet et al., 2012; Games et al., 2013), neurodegeneration including dopaminergic neurodegeneration, reduced dopamine (DA) and TH loss in the striatum (Masliah et al., 2000; Lam et al., 2011), and motor deficits (Fleming et al., 2004). Male transgenic and non-transgenic littermates (3-3.5 mo) were used for all in vivo studies presented here.
Alpha-synuclein (ASYN) is a neuronal protein whose dysregulation has been implicated in the pathogenesis of PD. The effects of Compound 1 on alpha-synuclein aggregation were assessed in both L61 ASYN transgenic and non-transgenic mice in a 1 month administration study. L61 ASYN transgenic mice (36 total mice, n=8-11 mice per treatment group) were injected (i.p.) daily with 1, 5, or 10 mg/kg of Compound 1 or a vehicle control (5% DMSO+20% Cremphor EL+0.9% normal saline) for 1 month. Non-transgenic mice (18 total mice, n=8-11 mice per treatment group) were used as a control and were injected daily (i.p.) with 10 mg/kg of Compound 1 or a vehicle control (5% DMSO+20% Cremphor EL+0.9% normal saline) per day for 1 month. At the end of one month, the mice were sacrificed, and immunohistochemical (IHC) detection of total alpha-synuclein deposits, insoluble alpha-synuclein deposits (PK+resistant), microtubule-associated protein 1A/1B-light chain 3 (LC3), and monomeric alpha-synuclein levels were assessed in the harvested brain tissues.
The quantification and IHC staining of total alpha-synuclein were performed using known techniques (Rockenstein et al., J Neurosci Res. 2002, 68(5):568-78; Tanji et al., Acta Neuropathol. 2010, 120, 145-154; Nuber et al., Brain. 2013 February; 136(Pt 2):412-32).

human transporter OAT3 = molecular target: T1, human transporter OAT3 (Homo sapiens, UniProt Q8TCC7); experiment: Further OAT3 uptake inhibition assay (Table 2); assay type: cell-based; conditions: compound 0.03-10 μM
T1 construct: expressed in transfected cells; host or cells: MDCK-II
T1 sequence (Q8TCC7 1-542): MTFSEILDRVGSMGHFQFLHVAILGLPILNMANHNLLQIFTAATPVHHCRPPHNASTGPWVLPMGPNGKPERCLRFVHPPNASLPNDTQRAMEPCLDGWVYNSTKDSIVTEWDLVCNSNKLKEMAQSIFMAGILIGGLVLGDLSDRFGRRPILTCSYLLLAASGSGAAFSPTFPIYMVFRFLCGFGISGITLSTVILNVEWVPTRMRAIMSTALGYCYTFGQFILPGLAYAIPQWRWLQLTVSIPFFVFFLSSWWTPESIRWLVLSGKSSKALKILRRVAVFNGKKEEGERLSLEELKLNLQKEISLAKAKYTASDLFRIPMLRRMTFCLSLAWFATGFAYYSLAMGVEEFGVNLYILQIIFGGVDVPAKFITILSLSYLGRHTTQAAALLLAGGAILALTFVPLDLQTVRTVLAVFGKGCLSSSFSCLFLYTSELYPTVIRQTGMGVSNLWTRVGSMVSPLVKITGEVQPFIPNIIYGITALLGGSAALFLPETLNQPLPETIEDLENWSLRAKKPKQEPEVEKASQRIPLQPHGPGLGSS
Procedure: (§1) In a further assay, the effects of several other compounds (including compounds 2, 3, and 4) were assessed against OAT3. The assay was carried out using a similar procedure as described above, using para-aminohippurate (PAH) and estrone-3-sulfate (E3S) as the substrates for measuring OAT3-mediated transport. […] MDCK-II cells were grown in 96-well cell culture plates, and the cell plates are maintained at 37° C. in 5% CO2 atmosphere prior to initiation of the transport experiment. MDCK-II cells were maintained in DMEM with low glucose and 10% FBS. Cells passages up to 40 are seeded at 60K±10K cells/well on 96-well, transwell membrane plates approximately 24 hours before transfection. Transport assays were carried out approximately 48 hours after transfection. Radio-labeled para-aminohippurate ([3H]-PAH) and estrone-3-sulfate (E3S) were used as substrates for measuring OAT3-mediated transport, where the transport of the substrate was determined by radiometric detection. Probenecid was used as a reference inhibitor. Transport study samples were run in triplicate.
(§2) For uptake assays, the net transporter-mediated uptake rate (V) of the substrate by each SLC transporter was calculated as follows:
(§3) Transporter-mediated uptake rate(pmol/min/cm^2)=((Cellular accumulation in cells expressing the transporter)−(Mean cellular accumulation in control cells))/Incubation time.
(§4) Percent inhibition was calculated by dividing the transporter-mediated uptake rate in presence of the test article or the reference inhibitor by the transporter-mediated uptake rate in presence of vehicle control:
(§5) Percent inhibition=100−(100×(transporter-mediated uptake rate)with inhibitor/(transporter-mediated uptake rate)vehicle control)
(§6) For uptake assays, statistical analyses using an unpaired t test was performed between transporter-mediated uptake rate or ATP-dependent transport rate of probe substrate with vehicle control and the inhibitor. A p value of <0.05 was considered statistically significant.
(§7) Table 2 summarizes the inhibitory activity of these compounds against OAT3 in the uptake of probe substrate PAH (p-aminohippurate) or E3S (estrone-3-sulfate). The percent inhibition values were determined by testing compounds at a single concentration of 1 μM with a PAH concentration of 10 μM. Data represent the mean and standard deviation of triplicate samples. The IC50 values were calculated by means of a concentration response curve with a compound concentration range of 0.03-10 μM and a probe substrate concentration of 10 μM PAH or 0.1 μM E3S. The percent inhibition at the various concentrations was run in triplicate and the IC50 value was determined by non-linear regression using GraphPad Prism.

OAT3 = molecular target: T2, OAT3 (Homo sapiens, UniProt Q8TCC7); experiment: Further OAT3 uptake inhibition assay (Table 2); assay type: cell-based; conditions: human, MDCK-II cells expressing human OAT3, probe 10 μM PAH (p-aminohippurate); compound 1 μM; PAH 10 μM; mean and SD of triplicate
T2 construct: expressed in transfected cells; host or cells: MDCK-II
T2 sequence (Q8TCC7 1-542): T1 sequence (Q8TCC7 1-542)
Procedure: as §1, §2, §3, §4, §5, §6, §7

O=S(=O)(c1ccc(-n2cn[nH]c2=S)cc1)c1ccc(Cl)c(C(F)(F)F)c1 [Compound 1, 4-(4-((4-chloro-3-(trifluoromethyl)phenyl)sulfonyl)phenyl)-2,4-dihydro-3H-1,2,4-triazole-3-thione]
reduction of total alpha-synuclein level in cortex compared to vehicle control (total alpha-synuclein; 1 mg/kg daily i.p.): 13% | reduction of total alpha-synuclein level in cortex compared to vehicle control (total alpha-synuclein; 5 mg/kg daily i.p.): 32% | reduction of total alpha-synuclein level in cortex compared to vehicle control (total alpha-synuclein; 10 mg/kg daily i.p.): 38% | total ASYN in the neuropil of cortex, hippocampus and striatum vs vehicle (total alpha-synuclein; 1, 5 or 10 mg/kg per day i.p., statistically significant): reduced total ASYN | pIC50 (human transporter OAT3; 0.1 μM E3S, read-out: OAT3 inhibition substrate = E3S (IC50)): 6.05 | pIC50 (human transporter OAT3; 10 μM PAH, read-out: OAT3 inhibition substrate = PAH (IC50)): 6.60 | inhibition at 1 μM (OAT3): 80.3%
